Results published in patent publication US11505543B2, “4-oxo-3,4-dihydroquinazoline compounds as inhibitors of human immunodeficiency virus replication” (VIIV HEALTHCARE UK (NO.5) LIMITED, priority 2018, dated 2022).
pEC50: −log10 of the molar value.

Assays:
[1] = Compound cytotoxicity, XTT-based colorimetric assay; type: cell-based; details: human, uninfected MT2 cells, day 4, XTT
In short: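 Run under the antiviral-assay protocol but without virus. Viability was read on day 4 and CC50 values were derived from the readout.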

[2] = tested on: recombinant NL4-3 virus (nef section replaced with Renilla luciferase gene) in MT-2 cells; assay: HIV cell culture assay (antiviral activity, luciferase readout); type: cell-based; details: Renilla, NL43, MT-2 cells infected for 4-5 days with recombinant NL4-3 Renilla luciferase virus, serial dilutions of compound
In short: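 EC50 was derived by median-effect curve fitting of luciferase activity. The signal comes from MT-2 cells infected for 4–5 days with 293T-produced NL4-3 reporter virus, nef partly replaced by Renilla luciferase, in the presence of serially diluted compound.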

Row | SMILES | CC50 at 4 day [1] [nM] | pEC50 [2]
1 | CCS(=O)(=O)c1ccccc1-c1ccc2c(=O)n(-c3ccc(Cl)c4c(NS(C)(=O)=O)nn(CC(F)F)c34)c([C@H](Cc3cc(F)cc(F)c3)NC(=O)Cn3nc(C(F)F)c4c3C(F)(F)[C@@H]3C[C@H]43)nc2c1 [Example 177, N-((S)-1-(3-(4-chloro-1-(2,2-difluoroethyl)-3-(methylsulfonamido)-1H-indazol-7-yl)-7-(2-(ethylsulfonyl)phenyl)-4-oxo-3,4-dihydroquinazolin-2-yl)-2-(3,5-difluorophenyl)ethyl)-2-((3bS,4aR)-3-(difluoromethyl)-5,5-difluoro-3b,4,4a,5-tetrahydro-1H-cyclopropa[3,4]cyclopenta[1,2-c]pyrazol-1-yl)acetamide] | > 500 | 10.28
2 | CC(C)S(=O)(=O)c1ccccc1-c1ccc2c(=O)n(-c3ccc(Cl)c4c(NS(C)(=O)=O)nn(CC(F)F)c34)c([C@H](Cc3cc(F)cc(F)c3)NC(=O)Cn3nc(C(F)F)c4c3C(F)(F)[C@@H]3C[C@H]43)nc2c1 [Example 178, N-((S)-1-(3-(4-chloro-1-(2,2-difluoroethyl)-3-(methylsulfonamido)-1H-indazol-7-yl)-7-(2-(isopropylsulfonyl)phenyl)-4-oxo-3,4-dihydroquinazolin-2-yl)-2-(3,5-difluorophenyl)ethyl)-2-((3bS,4aR)-3-(difluoromethyl)-5,5-difluoro-3b,4,4a,5-tetrahydro-1H-cyclopropa[3,4]cyclopenta[1,2-c]pyrazol-1-yl)acetamide] | > 500 | 10.19
3 | COc1ccc(-c2ccc3c(=O)n(-c4ccc(Cl)c5c(NS(C)(=O)=O)nn(C)c45)c([C@H](Cc4cc(F)cc(F)c4)NC(=O)Cn4nc(C(F)F)c5c4C(F)(F)[C@@H]4C[C@H]54)nc3c2)c(CO)c1 [Example 179, N-((S)-1-(3-(4-chloro-1-methyl-3-(methylsulfonamido)-1H-indazol-7-yl)-7-(2-(hydroxymethyl)-4-methoxyphenyl)-4-oxo-3,4-dihydroquinazolin-2-yl)-2-(3,5-difluorophenyl)ethyl)-2-((3bS,4aR)-3-(difluoromethyl)-5,5-difluoro-3b,4,4a,5-tetrahydro-1H-cyclopropa[3,4]cyclopenta[1,2-c]pyrazol-1-yl)acetamide] | > 500 | 9.63
4 | Cn1nc(NS(C)(=O)=O)c2c(Cl)ccc(-n3c([C@H](Cc4cc(F)cc(F)c4)NC(=O)Cn4nc(C(F)F)c5c4C(F)(F)[C@@H]4C[C@H]54)nc4cc(-c5cc(F)ccc5CO)ccc4c3=O)c21 [Example 180, N-((S)-1-(3-(4-chloro-1-methyl-3-(methylsulfonamido)-1H-indazol-7-yl)-7-(5-fluoro-2-(hydroxymethyl)phenyl)-4-oxo-3,4-dihydroquinazolin-2-yl)-2-(3,5-difluorophenyl)ethyl)-2-((3bS,4aR)-3-(difluoromethyl)-5,5-difluoro-3b,4,4a,5-tetrahydro-1H-cyclopropa[3,4]cyclopenta[1,2-c]pyrazol-1-yl)acetamide] | > 500 | 9.70
5 | CC(C)Oc1ccccc1-c1ccc2c(=O)n(-c3ccc(Cl)c4c(NS(C)(=O)=O)nn(C)c34)c([C@H](Cc3cc(F)cc(F)c3)NC(=O)Cn3nc(C(F)F)c4c3C(F)(F)[C@@H]3C[C@H]43)nc2c1 [Example 181, N-((S)-1-(3-(4-chloro-1-methyl-3-(methylsulfonamido)-1H-indazol-7-yl)-7-(2-isopropoxyphenyl)-4-oxo-3,4-dihydroquinazolin-2-yl)-2-(3,5-difluorophenyl)ethyl)-2-((3bS,4aR)-3-(difluoromethyl)-5,5-difluoro-3b,4,4a,5-tetrahydro-1H-cyclopropa[3,4]cyclopenta[1,2-c]pyrazol-1-yl)acetamide] | > 500 | 9.15
6 | CS(=O)(=O)Nc1nn(CC(F)(F)F)c2c(-n3c([C@H](Cc4cc(F)cc(F)c4)NC(=O)Cn4nc(C(F)(F)F)c5c4C(F)(F)[C@@H]4C[C@H]54)nc4cc(-c5ccccc5F)ccc4c3=O)ccc(Cl)c12 [Example 182, N-((S)-1-(3-(4-chloro-3-(methylsulfonamido)-1-(2,2,2-trifluoroethyl)-1H-indazol-7-yl)-7-(2-fluorophenyl)-4-oxo-3,4-dihydroquinazolin-2-yl)-2-(3,5-difluorophenyl)ethyl)-2-((3bS,4aR)-5,5-difluoro-3-(trifluoromethyl)-3b,4,4a,5-tetrahydro-1H-cyclopropa[3,4]cyclopenta[1,2-c]pyrazol-1-yl)acetamide] | > 500 | 9.06
7 | CS(=O)(=O)Nc1nn(CC(F)F)c2c(-n3c([C@H](Cc4cc(F)cc(F)c4)NC(=O)Cn4nc(C(F)F)c5c4C(F)(F)[C@@H]4C[C@H]54)nc4cc(-c5ccccc5F)ccc4c3=O)ccc(Cl)c12 [Example 183, N-((S)-1-(3-(4-chloro-1-(2,2-difluoroethyl)-3-(methylsulfonamido)-1H-indazol-7-yl)-7-(2-fluorophenyl)-4-oxo-3,4-dihydroquinazolin-2-yl)-2-(3,5-difluorophenyl)ethyl)-2-((3bS,4aR)-3-(difluoromethyl)-5,5-difluoro-3b,4,4a,5-tetrahydro-1H-cyclopropa[3,4]cyclopenta[1,2-c]pyrazol-1-yl)acetamide] | > 500 | 9.41
8 | Cn1nc(NS(C)(=O)=O)c2c(Cl)ccc(-n3c([C@H](Cc4cc(F)cc(F)c4)NC(=O)Cn4nc(C(F)F)c5c4C(F)(F)[C@@H]4C[C@H]54)nc4cc(-c5ccc(Cl)cc5F)ccc4c3=O)c21 [Example 184, N-((S)-1-(3-(4-chloro-1-methyl-3-(methylsulfonamido)-1H-indazol-7-yl)-7-(4-chloro-2-fluorophenyl)-4-oxo-3,4-dihydroquinazolin-2-yl)-2-(3,5-difluorophenyl)ethyl)-2-((3bS,4aR)-3-(difluoromethyl)-5,5-difluoro-3b,4,4a,5-tetrahydro-1H-cyclopropa[3,4]cyclopenta[1,2-c]pyrazol-1-yl)acetamide] | > 500 | 8.74
9 | Cn1nc(NS(C)(=O)=O)c2c(Cl)ccc(-n3c([C@H](Cc4cc(F)cc(F)c4)NC(=O)Cn4nc(C(F)F)c5c4C(F)(F)[C@@H]4C[C@H]54)nc4cc(-c5c(F)cccc5F)ccc4c3=O)c21 [Example 185, N-((S)-1-(3-(4-chloro-1-methyl-3-(methylsulfonamido)-1H-indazol-7-yl)-7-(2,6-difluorophenyl)-4-oxo-3,4-dihydroquinazolin-2-yl)-2-(3,5-difluorophenyl)ethyl)-2-((3bS,4aR)-3-(difluoromethyl)-5,5-difluoro-3b,4,4a,5-tetrahydro-1H-cyclopropa[3,4]cyclopenta[1,2-c]pyrazol-1-yl)acetamide] | > 1000 | 9.21
10 | COc1ccccc1-c1ccc2c(=O)n(-c3ccc(Cl)c4c(NS(C)(=O)=O)nn(C)c34)c([C@H](Cc3cc(F)cc(F)c3)NC(=O)Cn3nc(C(F)F)c4c3C(F)(F)[C@@H]3C[C@H]43)nc2c1 [Example 186, N-((S)-1-(3-(4-chloro-1-methyl-3-(methylsulfonamido)-1H-indazol-7-yl)-7-(2-methoxyphenyl)-4-oxo-3,4-dihydroquinazolin-2-yl)-2-(3,5-difluorophenyl)ethyl)-2-((3bS,4aR)-3-(difluoromethyl)-5,5-difluoro-3b,4,4a,5-tetrahydro-1H-cyclopropa[3,4]cyclopenta[1,2-c]pyrazol-1-yl)acetamide] | > 1000 | 8.62
11 | Cn1nc(NS(C)(=O)=O)c2c(Cl)ccc(-n3c([C@H](Cc4cc(F)cc(F)c4)NC(=O)Cn4nc(C(F)F)c5c4C(F)(F)[C@@H]4C[C@H]54)nc4cc(-c5ccc(F)cc5F)ccc4c3=O)c21 [Example 187, N-((S)-1-(3-(4-chloro-1-methyl-3-(methylsulfonamido)-1H-indazol-7-yl)-7-(2,4-difluorophenyl)-4-oxo-3,4-dihydroquinazolin-2-yl)-2-(3,5-difluorophenyl)ethyl)-2-((3bS,4aR)-3-(difluoromethyl)-5,5-difluoro-3b,4,4a,5-tetrahydro-1H-cyclopropa[3,4]cyclopenta[1,2-c]pyrazol-1-yl)acetamide] | > 1000 | 9.55
12 | Cc1cc(F)ccc1-c1ccc2c(=O)n(-c3ccc(Cl)c4c(NS(C)(=O)=O)nn(C)c34)c([C@H](Cc3cc(F)cc(F)c3)NC(=O)Cn3nc(C(F)F)c4c3C(F)(F)[C@@H]3C[C@H]43)nc2c1 [Example 188, N-((S)-1-(3-(4-chloro-1-methyl-3-(methylsulfonamido)-1H-indazol-7-yl)-7-(4-fluoro-2-methylphenyl)-4-oxo-3,4-dihydroquinazolin-2-yl)-2-(3,5-difluorophenyl)ethyl)-2-((3bS,4aR)-3-(difluoromethyl)-5,5-difluoro-3b,4,4a,5-tetrahydro-1H-cyclopropa[3,4]cyclopenta[1,2-c]pyrazol-1-yl)acetamide] | > 1000 | 8.77
13 | O=C(Cn1nc(C(F)F)cc1C(F)F)N[C@@H](Cc1cc(F)cc(F)c1)c1nc2cc(-c3ncccn3)ccc2c(=O)n1-c1ccc(Cl)c2c(NS(=O)(=O)C3CC3)nn(CC(F)F)c12 [Example 189, (S)-2-(3,5-bis(difluoromethyl)-1H-pyrazol-1-yl)-N-(1-(3-(4-chloro-3-(cyclopropanesulfonamido)-1-(2,2-difluoroethyl)-1H-indazol-7-yl)-4-oxo-7-(pyrimidin-2-yl)-3,4-dihydroquinazolin-2-yl)-2-(3,5-difluorophenyl)ethyl)acetamide] | > 500 | 8.89
14 | O=C(Cn1nc(C(F)F)cc1C(F)F)N[C@@H](Cc1cc(F)cc(F)c1)c1nc2cc(-c3ccccn3)ccc2c(=O)n1-c1ccc(Cl)c2c(NS(=O)(=O)C3CC3)nn(CC(F)F)c12 [Example 190, (S)-2-(3,5-bis(difluoromethyl)-1H-pyrazol-1-yl)-N-(1-(3-(4-chloro-3-(cyclopropanesulfonamido)-1-(2,2-difluoroethyl)-1H-indazol-7-yl)-4-oxo-7-(pyridin-2-yl)-3,4-dihydroquinazolin-2-yl)-2-(3,5-difluorophenyl)ethyl)acetamide] | > 500 | 8.68
